In patent publication US20100087439A1, “NOVEL […]/OR THERAPEUTIC AGENT FOR NEUROPATHIC PAIN” (ASTELLAS PHARMA INC., priority 2007, published 2010):
Like-named read-outs stand apart in the source and are kept apart here.

How the values were obtained:
[1] = test system: L5/L6 spinal nerve ligation models; type: in vivo, male SD rats
Method: The evaluation of an analgesic effect on neuropathic pain was performed according to the method of Kim et al. using L5/L6 spinal nerve ligation models. That is, the left L5 and L6 sciatic nerves of male SD rats were tightly ligated with a silk thread under pentobarbital anesthesia, and thereafter, the evaluation was performed. As the assessment of pain behavior, a von Frey Test on the plantar surface of the animals was employed (Pain, vol. 50, pp. 355-363, 1992). That is, the plantar surface of the operated limb of the nerve ligation rat was stimulated by using von Frey Filament until a withdrawal response was observed, and the lowest amount of force (g) required to elicit withdrawal response was defined as a pain threshold. […] Each of a vehicle and diluted solutions obtained by diluting (±)-2-[(inden-7-yloxy)methyl]morpholine hydrochloride (indeloxazine hydrochloride), (+)-2-[(inden-7-yloxy)methyl]morpholine hydrochloride ((+)-indeloxazine hydrochloride), (−)-2-[(inden-7-yloxy)methyl]morpholine hydrochloride ((−)-indeloxazine hydrochloride), or duloxetine with a vehicle so as to give a dose of 30 mg/kg (calculated as a salt free form) was orally administered to rats in each group. The oral absorption of venlafaxine is poor, therefore, venlafaxine was intraperitoneally administered. As the vehicle, distilled water was used. A pain threshold was measured at 3 hours after administration in the case of duloxetine, and at 1 hour after administration in the case of the other compounds. An analgesic effect of each compound was examined based on recovery of the pain threshold in the each compound administration group compared with that in the vehicle administration group, as S. K. Joshi et al. described (Neuroscience, vol. 143, pp. 587-596, 2006).
The numerical values in the table indicate a mean value±standard error of the mean (SEM) of recovery ratios of thresholds of compounds when the pain threshold of the normal side paw is regarded as 100% and the pain threshold of the operated side paw is regarded as 0%.

[2] = test system: CYP; assay: CYP inhibitory activity; type: in vitro ADME; details: no method or isoform given
[3] = 30 mg/kg (calculated as a salt free form), p.o., measured 1 hour after administration, mean ± SEM, hydrochloride
[4] = oral dose of 30 mg/kg (salt free form), 1 hour after administration, Student's t-test

Compound | % Effect (recovery ratio of pain threshold; normal side paw = 100%, operated side paw = 0%) [1, 3] [%] | recovery in the pain threshold compared with the vehicle group (in words) [1, 4] | other results
COc1ccc(C(CN(C)C)C2(O)CCCCC2)cc1 (racemic) [Venlafaxine, (±)-1-[2-(dimethylamino)-1-(4-methoxyphenyl)ethyl]cyclohexanol, reference compound] |  |  | recovery in the pain threshold compared with the vehicle group (in words) ([1]; 30 mg/kg (salt free form), intraperitoneal, 1 hour after administration, Student's t-test): a significant recovery in the threshold was not observed
C1=Cc2cccc(OCC3CNCCO3)c2C1.Cl (single isomer, unassigned; (+)) [(+)-Indeloxazine hydrochloride, (+)-2-[(inden-7-yloxy)methyl]morpholine hydrochloride] | 94.5 ± 17.0 | significant recovery in the pain threshold | 
C1=Cc2cccc(OCC3CNCCO3)c2C1.Cl (racemic) [(±)-Indeloxazine hydrochloride, (±)-2-[(inden-7-yloxy)methyl]morpholine hydrochloride] |  | significant recovery in the pain threshold | % Effect (recovery ratio of pain threshold; normal side paw = 100%, operated side paw = 0%) ([1]; 30 mg/kg (calculated as a salt free form), p.o., measured 1 hour after administration, mean ± SEM): 94.3 ± 24.6 %
C1=Cc2cccc(OCC3CNCCO3)c2C1 (single isomer, unassigned; (+)) [(+)-2-[(inden-7-yloxy)methyl]morpholine] |  |  | CYP inhibitory activity (in words) [2]: extremely weak CYP inhibitory activity
CNCC[C@H](Oc1cccc2ccccc12)c1cccs1 [Duloxetine, (S)—N-methyl-γ-(1-naphthalenyloxy)-2-thiophenepropanamine, reference compound] |  |  | % Effect (recovery ratio of pain threshold; normal side paw = 100%, operated side paw = 0%) ([1]; rat, in vivo): 49.3 ± 25.3%; recovery in the pain threshold compared with the vehicle group (in words) ([1]; rat, in vivo): a significant recovery in the threshold was not observed
C1=Cc2cccc(OCC3CNCCO3)c2C1.Cl (single isomer, unassigned; (-)) [(−)-Indeloxazine hydrochloride, (−)-2-[(inden-7-yloxy)methyl]morpholine hydrochloride] | 115.7 ± 22.0 | significant recovery in the pain threshold | 
